Laboratory results: article PMC8626090, “A conserved neuropeptide system links head and body motor circuits to enable adaptive behavior” (eLife, 2021)
Where two headings read alike, the source gives them in different places. No end group written: not given here.

What was measured:
[1] = target: CKR-2 (Caenorhabditis elegans, UniProt M1Z894); experiment: GPCR activation assay, CKR-2 (aequorin bioluminescence calcium, CHO-K1 Gα16); type: cell-based; details: for ratio of total calcium response: in vitro controls, CKR-2
CKR-2, sequence (M1Z894 entry or part of it): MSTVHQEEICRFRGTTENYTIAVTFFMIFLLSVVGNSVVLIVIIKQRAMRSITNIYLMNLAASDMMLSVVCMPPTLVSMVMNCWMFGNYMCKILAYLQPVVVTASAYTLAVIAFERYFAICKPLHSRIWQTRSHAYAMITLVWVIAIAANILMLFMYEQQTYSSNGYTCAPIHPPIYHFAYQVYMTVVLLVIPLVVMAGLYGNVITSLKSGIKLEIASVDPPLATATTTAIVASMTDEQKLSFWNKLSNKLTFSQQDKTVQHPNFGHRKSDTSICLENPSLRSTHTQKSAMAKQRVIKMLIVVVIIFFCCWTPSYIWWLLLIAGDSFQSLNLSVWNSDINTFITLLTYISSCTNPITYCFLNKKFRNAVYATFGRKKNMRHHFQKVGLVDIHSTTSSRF
Method: (§1) To obtain direct evidence for NLP-12 activation of CKR-1, we used an in vitro bioluminescence-based approach. CKR-1 was expressed in Chinese hamster ovarian (CHO) cells stably expressing the promiscuous G-protein alpha subunit Gα16 and a bioluminescent calcium indicator, aequorin ([Caers et al., 2014]). The NLP-12 precursor gives rise to two distinct mature peptides, NLP-12–1 and NLP-12–2.
(§2) The GPCR activation assay was performed as previously described ([Caers et al., 2014]; [Peymen et al., 2019]; [Van Sinay et al., 2017]). Briefly, CHO-K1 cells stably expressing the luminescent Ca^2+ indicator aequorin and the promiscuous Gα16 protein (ES-000-A24 cell line, PerkinElmer) were transiently transfected with ckr-1/pcDNA3.1, ckr-2/pcDNA3.1, or empty pcDNA3.1 vector. Cells were transfected with Lipofectamine LTX and Plus reagent (Invitrogen) at 60–80% confluency and grown overnight at 37°C. After 24 hr, they were shifted to 28°C overnight. On the day of the assay, transfected cells were collected in bovine serum albumin (BSA) medium (DMEM/F12 without phenol red with L-glutamine and 15 mM HEPES, Gibco, supplemented with 0.1% BSA), at a density of 5 million cells per ml, and loaded with 5 µM coelenterazine h (Invitrogen) for 4 hr at room temperature. Compound plates containing synthetic peptides in DMEM/BSA were placed in a MicroBeta LumiJet luminometer (PerkinElmer). After loading, the transfected cells were added at a density of 25,000 cells/well, and luminescence was measured for 30 s at a wavelength of 469 nm. After 30 s, 0.1% triton X-100 (Merck) was added to lyse the cells, resulting in a maximal Ca^2+ response that was measured for 30 s. To constitute concentration-response curves of NLP-12 peptides, peptide concentrations ranging from 1 pM to 10 µM were tested in triplicate on 2 independent days.

[2] = target: T1, CKR-1 (Caenorhabditis elegans, UniProt P91487); experiment: GPCR activation assay, CKR-1 (aequorin bioluminescence calcium, CHO-K1 Gα16); type: cell-based; details: for ratio of total calcium response: in vitro controls, CKR-1
T1 sequence (P91487 1-421): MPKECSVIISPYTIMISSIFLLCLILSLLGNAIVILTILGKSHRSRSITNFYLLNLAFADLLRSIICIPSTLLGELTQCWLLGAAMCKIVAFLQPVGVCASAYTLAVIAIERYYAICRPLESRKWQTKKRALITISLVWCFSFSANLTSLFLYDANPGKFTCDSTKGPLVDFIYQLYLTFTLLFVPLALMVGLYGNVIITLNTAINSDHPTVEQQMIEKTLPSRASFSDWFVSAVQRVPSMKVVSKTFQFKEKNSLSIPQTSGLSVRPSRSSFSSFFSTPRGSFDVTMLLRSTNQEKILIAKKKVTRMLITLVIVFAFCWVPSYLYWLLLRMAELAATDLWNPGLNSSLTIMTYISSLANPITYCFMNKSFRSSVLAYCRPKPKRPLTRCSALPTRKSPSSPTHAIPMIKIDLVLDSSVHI
Method: as §1, §2

[3] = tested on: CHO cells transfected with an empty pcDNA3.1 vector; experiment: GPCR activation assay, control cells transfected with empty pcDNA3.1 vector; type: cell-based, Chinese hamster; details: in vitro controls
Method: as §1, §2

[4] = tested on: SMD neurons, Caenorhabditis elegans; details: in vivo
[5] = read-out: 95% confidence interval (EC50, CKR-2 activation), concentration-response curve fit, n=6
[6] = read-out: EC50 (CKR-2 activation, calcium response), CHO-K1 cells, aequorin/Gα16, 1 pM to 10 µM, triplicate on 2 independent days (n=6), luminescence 469 nm, 30 s
[7] = CHO-K1 cells, aequorin/Gα16, 1 pM to 10 µM, triplicate on 2 independent days (n=6), luminescence 469 nm, 30 s, read-out: EC50 (CKR-1 activation, calcium response)
[8] = concentration-response curve fit, n=6, read-out: 95% confidence interval (EC50, CKR-1 activation)

## DGYRPLQF-NH2 [NLP-12-2, DGYRPLQFamide]
[1]; [5]
  EC50: 6.43 to 16.7 nM
[1]; [6]
  EC50: 10.2 nM
[2]; [7]
  EC50: 1.9 nM
[2]; [8]
  EC50: 0.93 to 3.77 nM

## Nc1ncnc2c1ncn2[C@@H]1O[C@H](COP(=O)(O)OP(=O)(O)OP(=O)(O)O)[C@@H](O)[C@H]1O [ATP]
[1]; replicate 1
  ratio of total calcium response: 0.7753
[1]; replicate 2
  ratio of total calcium response: 0.8315
[1]; replicate 3
  ratio of total calcium response: 0.845
[1]; replicate 4
  ratio of total calcium response: 0.8913
[1]; replicate 5
  ratio of total calcium response: 0.8945
[3]; replicate 1
  ratio of total calcium response: 0.9381
[3]; replicate 2
  ratio of total calcium response: 0.6003
[3]; replicate 3
  ratio of total calcium response: 0.6268
[3]; replicate 4
  ratio of total calcium response: 0.814
[3]; replicate 5
  ratio of total calcium response: 0.8225
[2]; replicate 1
  ratio of total calcium response: 0.6901
[2]; replicate 2
  ratio of total calcium response: 0.479
[2]; replicate 3
  ratio of total calcium response: 0.5419
[2]; replicate 4
  ratio of total calcium response: 0.7243
[2]; replicate 5
  ratio of total calcium response: 0.7237

## DYRPLQF-NH2 [NLP-12-1, DYRPLQFamide]
[1]; [5]
  EC50: 5.16 to 12.5 nM
[1]; [6]
  EC50: 8 nM
[2]; [7]
  EC50: 3.5 nM
[2]; [8]
  EC50: 1.79 to 7.07 nM

## NCCc1c[nH]cn1 [histamine]
[4]
  reorientations during food searching upon SMD silencing: reduced reorientations with SMD silencing in transgenics
